Test results published in patent publication US12473296B2, “Perk inhibiting compounds” (HiberCell, Inc., priority 2019, dated 2025).

Key:
PERK = PERK (Homo sapiens (Human), UniProt Q9NZJ5); assay: PERK cellular assay (TR-FRET, HEK293-EGFP-eIF2α cells, tunicamycin-induced ER stress); type: cell-based; details: tunicamycin 2 hours, read-out: Cellular IC50 (μM) (EIF2a)
Summary of the method: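 After 2 h tunicamycin ([…]) stress following 30 min compound pretreatment at 37 °C, lysed HEK293-EGFP-eIF2α cells were read by TR-FRET. IC50 derived by 4-parameter logistic fitting of percent inhibition, DMSO-normalized, from 10-point 3-fold dilutions.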

[1] = molecular target: EIF2AK3 (PERK) catalytic domain (amino acids 536-1116) (Homo sapiens (Human), UniProt Q9NZJ5); assay: PERK in vitro activity assay (isolated), TR-FRET kinase assay; details: isolated PERK enzyme, 1.5 μM ATP, GFP-eIF2a substrate; read-out: Biochemical IC50
Summary of the method: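 Human PERK catalytic domain (aa 536-1116) with 100-200 nM GFP-eIF2a in 50 mM HEPES pH 7.5, 10 mM MgCl2, 1.0 mM EGTA, 0.01% Brij-35; enzyme-started reaction run 45 min at room temperature. Stopped with 10 mM EDTA, 2 nM Tb-anti-phospho-eIF2a added for 90 min; IC50 from TR-FRET ratio by 4-parameter logistic fit.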

Sequence of EIF2AK3 (PERK) catalytic domain (amino acids 536-1116) (Q9NZJ5 536-1116): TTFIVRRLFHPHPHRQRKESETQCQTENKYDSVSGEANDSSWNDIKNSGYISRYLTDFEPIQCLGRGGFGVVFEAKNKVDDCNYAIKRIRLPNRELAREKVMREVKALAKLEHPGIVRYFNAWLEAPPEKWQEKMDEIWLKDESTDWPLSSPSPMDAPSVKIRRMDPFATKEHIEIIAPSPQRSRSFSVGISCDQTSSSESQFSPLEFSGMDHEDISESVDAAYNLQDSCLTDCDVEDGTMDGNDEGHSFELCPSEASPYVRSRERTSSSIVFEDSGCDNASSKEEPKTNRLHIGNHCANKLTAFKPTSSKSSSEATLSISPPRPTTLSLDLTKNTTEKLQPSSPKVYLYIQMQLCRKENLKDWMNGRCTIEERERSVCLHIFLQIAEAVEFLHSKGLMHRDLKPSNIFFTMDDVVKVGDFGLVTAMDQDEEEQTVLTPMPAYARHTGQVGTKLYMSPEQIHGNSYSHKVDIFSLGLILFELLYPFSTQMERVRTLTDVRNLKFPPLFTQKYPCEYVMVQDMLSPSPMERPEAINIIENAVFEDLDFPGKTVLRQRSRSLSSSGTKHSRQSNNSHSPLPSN
Sequence of PERK (Q9NZJ5 30-1116): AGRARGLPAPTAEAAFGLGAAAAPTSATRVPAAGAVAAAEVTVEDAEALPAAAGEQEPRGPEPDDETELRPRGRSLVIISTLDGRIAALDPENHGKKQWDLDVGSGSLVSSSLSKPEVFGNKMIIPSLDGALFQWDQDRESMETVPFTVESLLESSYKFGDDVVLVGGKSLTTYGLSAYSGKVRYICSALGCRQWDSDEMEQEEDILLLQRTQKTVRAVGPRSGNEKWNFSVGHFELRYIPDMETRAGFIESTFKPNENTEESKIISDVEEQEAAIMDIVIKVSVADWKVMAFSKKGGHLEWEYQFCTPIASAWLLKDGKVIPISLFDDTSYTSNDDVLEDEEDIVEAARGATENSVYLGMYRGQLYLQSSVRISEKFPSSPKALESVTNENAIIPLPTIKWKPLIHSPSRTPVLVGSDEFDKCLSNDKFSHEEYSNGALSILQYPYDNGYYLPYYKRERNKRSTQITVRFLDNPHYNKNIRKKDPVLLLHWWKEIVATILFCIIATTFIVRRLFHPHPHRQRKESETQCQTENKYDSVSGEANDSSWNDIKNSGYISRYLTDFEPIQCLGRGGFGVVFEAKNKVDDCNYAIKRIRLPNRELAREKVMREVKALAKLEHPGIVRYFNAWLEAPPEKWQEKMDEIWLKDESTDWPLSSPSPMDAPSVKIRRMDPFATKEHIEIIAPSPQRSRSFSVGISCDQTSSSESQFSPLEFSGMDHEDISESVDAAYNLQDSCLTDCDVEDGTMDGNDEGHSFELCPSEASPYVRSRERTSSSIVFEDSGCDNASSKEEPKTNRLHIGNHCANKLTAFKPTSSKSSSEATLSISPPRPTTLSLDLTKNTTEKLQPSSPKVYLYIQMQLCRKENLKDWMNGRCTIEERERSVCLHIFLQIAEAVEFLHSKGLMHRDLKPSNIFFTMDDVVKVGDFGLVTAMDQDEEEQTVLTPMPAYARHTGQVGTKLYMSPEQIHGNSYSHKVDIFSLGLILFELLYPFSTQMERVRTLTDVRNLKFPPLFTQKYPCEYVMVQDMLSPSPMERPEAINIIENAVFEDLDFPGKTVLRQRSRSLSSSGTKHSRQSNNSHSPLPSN

## Cc1cc(NC(=O)Oc2ccccc2)ccc1-c1cnc(N)c(C(=O)NC(C)C)c1 [Example 219, phenyl (4-(6-amino-5-(isopropylcarbamoyl)pyridin-3-yl)-3-methylphenyl)carbamate]
PERK
  IC50: 1 to 2 µM
[1]
  IC50: 1000 to 2000 nM

## CCc1cccc(C(O)C(=O)Nc2ccc(-c3cnc(N)c(C(=O)NC(C)C)c3)c(CC)c2)c1 (stereo not drawn) [Example 106, 2-amino-5-(2-ethyl-4-(2-(3-ethylphenyl)-2-hydroxyacetamido)phenyl)-N-isopropylnicotinamide]
PERK
  IC50: 0.001 to 0.025 µM
[1]
  IC50: 1 to 25 nM

## CNc1ccc(-c2ccc(NC(=O)C(O)c3cc(F)cc(F)c3)cc2C)cn1 (stereo not drawn) [Example 172, 2-(3,5-difluorophenyl)-2-hydroxy-N-(3-methyl-4-(6-(methylamino)pyridin-3-yl)phenyl) acetamide]
PERK
  IC50: 1 to 2 µM
[1]
  IC50: 51 to 100 nM

## Cc1c(-c2cnc(N)c(C(=O)NC(C)C)c2)ccc(NC(=O)C(O)c2cc(F)cc(F)c2)c1F (stereo not drawn) [Example 116, 2-amino-5-(4-(2-(3,5-difluorophenyl)-2-hydroxyacetamido)-3-fluoro-2-methylphenyl)-N-isopropylnicotinamide]
PERK
  IC50: 1 to 2 µM
[1]
  IC50: 251 to 500 nM

## CC(C)NC(=O)c1cc(-c2ccc(NC(=O)C(O)c3cc(F)cc(F)c3)cc2)cnc1N (stereo not drawn) [Example 80, 2-amino-5-(4-(2-(3,5-difluorophenyl)-2-hydroxyacetamido)phenyl)-N-isopropylnicotinamide]
PERK
  IC50: 0.251 to 0.5 µM
[1]
  IC50: 1 to 25 nM

## CNc1ncc(-c2ccc(NC(=O)C(O)c3cc(F)cc(F)c3)cc2C)cc1C(=O)NC(C)C (stereo not drawn) [Example 174, 5-(4-(2-(3,5-difluorophenyl)-2-hydroxyacetamido)-2-methylphenyl)-N-isopropyl-2-(methylamino) nicotinamide]
PERK
  IC50: 4 to 5 µM
[1]
  IC50: 101 to 250 nM

## CCc1cc(NC(=O)C(O)c2cc(F)cc(F)c2)ccc1-c1cnc(N)c(C(=O)NC2CC2)n1 (stereo not drawn) [Example 157, 3-amino-N-cyclopropyl-6-(4-(2-(3,5-difluorophenyl)-2-hydroxyacetamido)-2-ethylphenyl) pyrazine-2-carboxamide]
PERK
  IC50: 0.101 to 0.25 µM
[1]
  IC50: 101 to 250 nM

## Cc1cc(NC(=O)CC2CC2)ccc1-c1cnc(N)c(C(=O)NC(C)C)c1 [Example 213, 2-amino-5-(4-(2-cyclopropyl-acetamido)-2-methylphenyl)-N-isopropylnicotinamide]
PERK
  IC50: > 5 µM
[1]
  IC50: 1000 to 2000 nM

## Cc1cc(NC(=O)C(O)c2cc(F)cc(F)c2)ccc1-c1cnc(N)c(C(=O)NC2CN(C)C2)c1 (stereo not drawn) [Example 47, 2-amino-5-(4-(2-(3,5-difluorophenyl)-2-hydroxyacetamido)-2-methylphenyl)-N-(1-methylazetidin-3-yl)nicotinamide]
PERK
  IC50: 1 to 2 µM
[1]
  IC50: 1 to 25 nM

## CCc1cc(NC(=O)C(O)c2cccc(C)c2)ccc1-c1cnc(N)c(C(=O)NC(C)C)n1 (stereo not drawn) [Example 161, 3-amino-6-(2-ethyl-4-(2-hydroxy-2-(m-tolyl)acetamido)phenyl)-N-isopropylpyrazine-2-carboxamide]
PERK
  IC50: 0.251 to 0.5 µM
[1]
  IC50: 51 to 100 nM

## Cc1cc(NC(=O)C(O)c2cc(F)cc(F)c2)ccc1-c1cnc(N)c(C(=O)NC(C)C)n1 (stereo not drawn) [Example 133, 3-amino-6-(4-(2-(3,5-difluorophenyl)-2-hydroxyacetamido)-2-methylphenyl)-N-isopropylpyrazine-2 carboxamide]
PERK
  IC50: 0.101 to 0.25 µM
[1]
  IC50: 51 to 100 nM

## Cc1cc(N(O)C(=O)C(O)c2cc(F)cc(F)c2)ccc1-c1cnc(N)c(C(=O)NC(C)C)c1 (stereo not drawn) [Example 182, 2-amino-5-(4-(2-(3,5-difluorophenyl)-N,2-dihydroxyacetamido)-2-methylphenyl)-N-isopropylnicotinamide]
PERK
  IC50: 2 to 3 µM
[1]
  IC50: 251 to 500 nM

## CCc1cc(NC(=O)C(O)c2cccc(Cl)c2)ccc1-c1cnc(N)c(C(=O)NC(C)C)c1 (single isomer, unassigned) [Example 109, 2-amino-5-(4-(2-(3-chlorophenyl)-2-hydroxyacetamido)-2-ethylphenyl)-N-isopropylnicotinamide]
PERK
  IC50: 0.101 to 0.25 µM
[1]
  IC50: 51 to 100 nM

## COc1cc(NC(=O)C(O)c2cc(F)cc(F)c2)ccc1-c1cnc(N)c(C(=O)NC(C)C)c1 (stereo not drawn) [Example 112, 2-amino-5-(4-(2-(3,5-difluorophenyl)-2-hydroxyacetamido)-2-methoxyphenyl)-N-isopropylnicotinamide]
PERK
  IC50: 0.251 to 0.5 µM
[1]
  IC50: 51 to 100 nM

## Cc1cc(NC(=O)C(O)c2cc(F)cc(F)c2)ccc1-c1cnc(N)c(C(=O)OC(C)C)c1 (single isomer, unassigned) [Example 43, isopropyl 2-amino-5-(4-(2-(3,5-difluorophenyl)-2-hydroxyacetamido)-2-methylphenyl) nicotinate]
PERK
  IC50: 0.251 to 0.5 µM
[1]
  IC50: 51 to 100 nM

## CCc1cc(NC(=O)C(O)c2cccc(C)c2)ccc1-c1cnc(N)c(C(=O)NC(C)C)n1 (stereo not drawn) [Example 160, 3-amino-6-(2-ethyl-4-(2-hydroxy-2-(m-tolyl)acetamido)phenyl)-N-isopropylpyrazine-2-carboxamide]
PERK
  IC50: 0.001 to 0.025 µM
[1]
  IC50: 1 to 25 nM

## Nc1ncc(-c2ccc(NC(=O)C(O)c3cc(F)cc(F)c3)cc2Cl)nc1C(=O)NC1COC1 (stereo not drawn) [Example 168, 3-amino-6-(2-chloro-4-(2-(3,5-difluorophenyl)-2-hydroxyacetamido)phenyl)-N-(oxetan-3-yl)pyrazine-2-carboxamide]
PERK
  IC50: 0.101 to 0.25 µM
[1]
  IC50: 51 to 100 nM

## Cc1nc(C(O)C(=O)Nc2ccc(-c3cnc(N)c(C(=O)NC(C)C)c3)c(C)c2)cs1 (stereo not drawn) [Example 79, 2-amino-5-(4-(2-hydroxy-2-(2-methylthiazol-4-yl)acetamido)-2-methylphenyl)-N-isopropylnicotinamide]
PERK
  IC50: > 5 µM
[1]
  IC50: 1000 to 2000 nM
